Columns and labels:
[1] = Intrinsic clearance in human liver microsomes; format: in vitro ADME; conditions: human liver microsome assay; 1 μM test compound, 0.806 mg/mL protein, NADPH, pH 7.4, 37° C.; mean +/− STD Dev
Procedure: The incubations were conducted at 37° C. […] (Sorvall RC 3C Plus, Thermo Scientific, Waltham, Mass.).

[2] = Determination of pKa (capillary electrophoresis, Analiza, Inc.); format: physicochemical; conditions: mean
[3] = tested on: human hepatocytes; assay: Intrinsic clearance in human hepatocytes (relay method); format: in vitro ADME; conditions: 1 μM, 20 h total incubation, mean +/− standard deviation
Procedure: For intrinsic clearance (CLint) measurement, hepatocyte relay method was used (Di, L., et al. 2012, Drug Metab. Dispos., 40, 1860-1865 and Di, L., et al. 2013, Drug Metab. Dispos., 41, 2018-2023). Cryopreserved human hepatocytes (Lot DCM from BioreclamationlVT) were used. Upon thawing, the hepatocytes were resuspended in Williams' medium E (custom formula number 91-5233EA; Gibco, Grand Island, N.Y.) supplemented with Hepes and Na2CO3. […] The plates were incubated at 37° C. with 95% air/5% CO2, 75% relative humidity for 4 h at 150 rpm in a humidified incubator. At time 0 and 4 h, 25 μL of hepatocyte suspension was removed from the incubation and added to 50 μL of ice-cold acetonitrile (containing metoprolol, indomethacin, and terfenadine as internal standards) to quench the reaction. The samples were centrifuged (Eppendorf, Hauppauge, N.Y.) at 3000 rpm (1439×g) for 10 min at room temperature, and 50 μL of supernatant was transferred to a clean plate, dried completely, and reconstituted before liquid chromatography/tandem mass spectrometry (LC-MS/MS) analysis. The remaining hepatocyte suspensions in the incubation plate were centrifuged (3000 rpm, 1439×g, 10 min, room temperature). The supernatant of 300 μL was transferred to a clean 24-well plate and stored at −80° C. until the next relay experiment. For the second relay experiment, the supernatant plates were warmed first to room temperature for 30 minutes, then to 37° C. for 30 min, and hepatocytes were added to the samples to give a final cell density of 0.5 million cells/mL. The plates were incubated at 37° C. for 4 h, sampled, and processed as described above. Five relays were performed to give a total incubation time of 20 h, with sampling points at (0, 4, 8, 12, 16 and 20 h). The concentrations of test compound determined at each time point by the LC-MS/MS analysis were used to calculate the intrinsic clearance.

[4] = tested on: human hepatocytes; assay: High throughput determination of intrinsic clearance in human hepatocytes; format: in vitro ADME; conditions: high throughput human hepatocyte assay; 0.5 million cells/mL, 1 μM test compound, 37° C.; mean +/− Std Dev
Procedure: The incubation was carried out at 37° C. […] The samples were centrifuged (Eppendorf, Hauppauge, N.Y.) at 3000 rpm for 5 min at 4° C.

CLint (μL/min/mg) (+/− STD Dev) [1]: <11 ± 3.5 µL/min/mg
Basic pKa (most basic pKa) [2]: 2.4
CLint (+/− Std Dev), relay hepatocyte assay [3]: 2.9 +/− 0.057 μL/min/million cells
CLint (μL/min/10^6 cells) (+/− Std Dev) [4]: <3.3 +/− 0.49 μL/min/10^6 cells
SMILES: CCOc1cccnc1Oc1cncc(-c2ncc(C(=O)NC3(CO)CCOC3)cn2)c1 (single isomer, unassigned) [WO2018033832 Ex. 6b]

From patent US11471458B2, “Diacylglycerol acyl transferase 2 inhibitor” (Pfizer Inc., priority 2019, dated 2022)
